According to publication PMC7457137, “An Integrated Pharmacokinetic Study of an Acanthopanax senticosus Extract Preparation by Combination of Virtual Screening, Systems Pharmacology, and Multi-Component Pharmacokinetics in Rats” (Frontiers in Pharmacology, 2020):
Where two headings read alike, the source gives them in different places.

Key:
insulin resistance = system: insulin resistance; design: method as in Ma et al., 2015; details: high-fat diet-fed rats; ref Ma et al., 2015; cited from earlier work
[1] = system: human umbilical vein endothelial cells; design: method as in Lin et al., 2017; Hu et al., 2018; details: ref Lin et al., 2017, Hu et al., 2018; cited from earlier work
zebrafish model = system: zebrafish model; design: method as in Lin et al., 2017; Hu et al., 2018; details: ref Lin et al., 2017, Hu et al., 2018; cited from earlier work
[2] = Multi-component PK in rats after i.v. administration of ASEP; type: in vivo, Sprague-Dawley rats; details: male, Sprague-Dawley, rat, plasma, iv, rat plasma, mean ± SD, n=3; for AUC(0-t): read-out: AUC0-t; for AUC(0-inf): read-out: AUC0-∞; for clearance: read-out: Cl (converted); for MRT last: read-out: MRT0-t; for MRT inf: read-out: MRT0-∞; for Vd: read-out: Vd; for half-life: read-out: t 1/2 (converted)
Method: The animal experiments were conducted in line with the Guide for the Care and Use of Laboratory Animals (published by the USA National Institutes of Health, NIH Publication no. 85-23, revised 1996), which were approved by the Animal Care and Use Committee of the College of Animal Science (College of Bee Science), Fujian Agriculture and Forestry University (Approval Number: […]2019004). […] All rats were acclimated to the facilities and environment for 7 days before the experiments. […] The gradient elution was carried out by the mobile phase water with 0.1% formic acid (A) and methanol (B). […] The column temperature and flow rate were at 35 °C and 0.5 ml/min, resepectively. 5 μl sample solution was injected for the HPLC-MS analysis. The electrospray ionization (ESI) source conditions were as follows: block heating temperature was kept at 400 °C; desolvation line temperature was set at 250 °C; dry gas (nitrogen) flow rate was kept at 15 L/min; and auxiliary gas (nitrogen) flow rate was 3 L/min. […] The plasma samples were separated by centrifugation, followed by storing at -20 °C before analysis. […] A DAS 3.0 software (Chinese Pharmacologic Society, Beijing, China) was used to calculate the noncompartmental PK parameters. All the results were presented as mean ± SD, and statistics analysis was done with a single-tailed Student's t test in the work.

[3] = 1.76 ml/kg, Low group: single i.v. 1.76 ml/kg of 5 times concentrated ASEP
[4] = 3.52 ml/kg, High group: single i.v. 3.52 ml/kg of 5 times concentrated ASEP

- AUC(0-t) [2, 3]: 1830 ng·h/mL
- AUC(0-inf) [2, 3]: 1830 ng·h/mL
- clearance [2, 3]: 8.5 mL/min
- MRT last [2, 3]: 25.8 ± 1.2 min
- MRT inf [2, 3]: 25.8 ± 1.2 min
- Vd [2, 3]: 0.26 ± 0.01 L
- half-life [2, 3]: 21.6 ± 0.6 min
- AUC(0-t) [2, 4]: 3410 ng·h/mL
- AUC(0-inf) [2, 4]: 3420 ng·h/mL
- clearance [2, 4]: 9 mL/min
- MRT last [2, 4]: 25.2 min
- MRT inf [2, 4]: 25.8 min
- Vd [2, 4]: 0.64 L
- half-life [2, 4]: 48.6 min
SMILES: O=C(/C=C/c1ccc(O)c(O)c1)O[C@@H]1C[C@](O)(C(=O)O)C[C@@H](O)[C@H]1O [3-CQA, 3-caffeoylquinic acid]
- effect on insulin resistance (insulin resistance): improve insulin resistance
- effect on VEGF-induced angiogenesis [1]: significant inhibitory effects
- effect on VEGF-induced angiogenesis (zebrafish model): significant inhibitory effects
